Results from publication PMC11956012, “Optimization of Cyclophilin B-Targeted Tri-vector Inhibitors for Novel MASH Treatments” (Journal of Medicinal Chemistry, 2025).
Converted amounts (≈) assume the structure as drawn. Like-named read-outs stand apart in the source and are kept apart here.

Experiments:
[1] = tested on: iPSC-derived hepatocytes; test: In vitro hepatic steatosis (MASH) assay; type: cell-based; conditions: 48 h treatment; for EC50: Hepatocyte, 48 h
[2] = Intrinsic clearance, rat liver microsomes; type: in vitro ADME; conditions: for microsomal CLint: Table 3, read-out: Rat Liver microsomes CL
[3] = Intrinsic clearance, human liver microsomes; type: in vitro ADME; conditions: for microsomal CLint: Table 3, read-out: Human Liver microsomes CL
[4] = Intrinsic clearance, rat hepatocytes; type: in vitro ADME; conditions: for hepatocyte CLint: Table 3, read-out: Rat Hepatocytes CL
[5] = Intrinsic clearance, human hepatocytes; type: in vitro ADME; conditions: for hepatocyte CLint: Table 3, read-out: Human Hepatocytes CL
[6] = Rat plasma protein binding; type: in vitro ADME
Source text: (§1) These experiments were subcontracted to Eurofins. […]

[7] = Human plasma protein binding; type: in vitro ADME
Source text: as §1

[8] = tested on: CYP1A; test: Cytochrome P450 inhibition CYP1A; type: in vitro ADME; conditions: human, probe phenacetin; single point at 10 μM; substrate phenacetin
[9] = target: T1, CYP2B6 (Homo sapiens, UniProt P20813); test: Cytochrome P450 inhibition CYP2B6; type: in vitro ADME; conditions: single point at 10 μM; substrate bupropion
T1 construct: Eurofins (subcontracted)
T1 sequence (P20813 1-491): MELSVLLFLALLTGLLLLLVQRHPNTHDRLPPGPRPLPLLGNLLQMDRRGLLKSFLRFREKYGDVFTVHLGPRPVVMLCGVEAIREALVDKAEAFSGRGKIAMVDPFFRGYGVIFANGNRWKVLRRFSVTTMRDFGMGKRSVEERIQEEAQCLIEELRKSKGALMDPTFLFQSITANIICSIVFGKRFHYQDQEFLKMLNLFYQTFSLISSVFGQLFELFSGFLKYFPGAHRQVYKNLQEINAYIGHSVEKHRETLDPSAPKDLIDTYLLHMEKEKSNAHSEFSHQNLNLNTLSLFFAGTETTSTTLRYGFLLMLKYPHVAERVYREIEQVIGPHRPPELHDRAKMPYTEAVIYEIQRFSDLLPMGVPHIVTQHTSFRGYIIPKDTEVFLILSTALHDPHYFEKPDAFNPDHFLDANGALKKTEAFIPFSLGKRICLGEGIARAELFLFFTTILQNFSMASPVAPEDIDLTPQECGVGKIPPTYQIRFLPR

[10] = target: T2, CYP2C8 (Homo sapiens, UniProt P10632); test: Cytochrome P450 inhibition CYP2C8; type: in vitro ADME; conditions: single point at 10 μM; substrate amodiaquine
T2 construct: Eurofins (subcontracted)
T2 sequence (P10632 1-490): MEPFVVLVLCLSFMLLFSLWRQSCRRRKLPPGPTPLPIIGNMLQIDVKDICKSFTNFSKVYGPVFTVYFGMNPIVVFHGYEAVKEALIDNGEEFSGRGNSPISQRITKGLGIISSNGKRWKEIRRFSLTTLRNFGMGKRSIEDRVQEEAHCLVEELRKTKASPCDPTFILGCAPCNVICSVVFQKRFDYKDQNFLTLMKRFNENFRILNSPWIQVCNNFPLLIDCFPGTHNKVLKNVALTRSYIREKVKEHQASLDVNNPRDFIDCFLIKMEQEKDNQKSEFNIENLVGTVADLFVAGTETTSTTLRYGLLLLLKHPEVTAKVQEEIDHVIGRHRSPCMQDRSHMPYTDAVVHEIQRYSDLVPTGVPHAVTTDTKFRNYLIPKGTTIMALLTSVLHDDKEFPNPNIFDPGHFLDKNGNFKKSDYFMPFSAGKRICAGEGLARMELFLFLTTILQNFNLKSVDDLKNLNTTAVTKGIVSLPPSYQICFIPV

[11] = target: T3, CYP2C9 (Homo sapiens, UniProt P11712); test: Cytochrome P450 inhibition CYP2C9; type: in vitro ADME; conditions: single point at 10 μM; substrate diclofenac
T3 construct: Eurofins (subcontracted)
T3 sequence (P11712 whole entry): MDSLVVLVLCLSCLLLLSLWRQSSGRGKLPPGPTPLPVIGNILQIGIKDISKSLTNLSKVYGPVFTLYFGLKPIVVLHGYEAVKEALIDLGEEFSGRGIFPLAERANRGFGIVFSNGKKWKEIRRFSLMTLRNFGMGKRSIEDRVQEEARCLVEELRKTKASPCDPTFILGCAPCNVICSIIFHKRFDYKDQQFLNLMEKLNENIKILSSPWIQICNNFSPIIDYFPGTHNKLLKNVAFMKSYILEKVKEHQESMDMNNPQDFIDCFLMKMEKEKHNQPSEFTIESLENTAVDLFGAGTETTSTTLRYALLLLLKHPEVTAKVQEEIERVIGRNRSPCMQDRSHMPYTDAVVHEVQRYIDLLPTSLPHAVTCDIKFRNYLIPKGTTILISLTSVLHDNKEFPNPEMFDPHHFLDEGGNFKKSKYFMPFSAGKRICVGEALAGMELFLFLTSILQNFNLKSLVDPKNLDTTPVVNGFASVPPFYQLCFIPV

[12] = target: T4, CYP2C19 (Homo sapiens, UniProt P33261); test: Cytochrome P450 inhibition CYP2C19; type: in vitro ADME; conditions: single point at 10 μM; substrate omeprazole
T4 construct: Eurofins (subcontracted)
T4 sequence (P33261 whole entry): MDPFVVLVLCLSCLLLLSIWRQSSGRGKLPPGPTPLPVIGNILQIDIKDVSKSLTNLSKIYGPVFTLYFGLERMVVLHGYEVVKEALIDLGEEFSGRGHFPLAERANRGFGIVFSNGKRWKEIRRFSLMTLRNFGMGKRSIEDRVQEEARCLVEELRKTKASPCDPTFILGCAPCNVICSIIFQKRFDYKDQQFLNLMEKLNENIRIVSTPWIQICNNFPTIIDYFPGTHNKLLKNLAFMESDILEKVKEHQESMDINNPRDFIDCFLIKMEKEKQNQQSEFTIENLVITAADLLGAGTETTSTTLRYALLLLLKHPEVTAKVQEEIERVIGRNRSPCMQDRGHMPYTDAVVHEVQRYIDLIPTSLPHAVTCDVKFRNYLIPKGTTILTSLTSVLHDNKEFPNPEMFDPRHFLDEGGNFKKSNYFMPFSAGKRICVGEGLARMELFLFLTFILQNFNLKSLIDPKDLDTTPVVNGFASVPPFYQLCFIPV

[13] = target: T5, CYP2D6 (Homo sapiens, UniProt P10635); test: Cytochrome P450 inhibition CYP2D6; type: in vitro ADME; conditions: single point at 10 μM; substrate dextrometorphan
T5 construct: Eurofins (subcontracted)
T5 sequence (P10635 whole entry): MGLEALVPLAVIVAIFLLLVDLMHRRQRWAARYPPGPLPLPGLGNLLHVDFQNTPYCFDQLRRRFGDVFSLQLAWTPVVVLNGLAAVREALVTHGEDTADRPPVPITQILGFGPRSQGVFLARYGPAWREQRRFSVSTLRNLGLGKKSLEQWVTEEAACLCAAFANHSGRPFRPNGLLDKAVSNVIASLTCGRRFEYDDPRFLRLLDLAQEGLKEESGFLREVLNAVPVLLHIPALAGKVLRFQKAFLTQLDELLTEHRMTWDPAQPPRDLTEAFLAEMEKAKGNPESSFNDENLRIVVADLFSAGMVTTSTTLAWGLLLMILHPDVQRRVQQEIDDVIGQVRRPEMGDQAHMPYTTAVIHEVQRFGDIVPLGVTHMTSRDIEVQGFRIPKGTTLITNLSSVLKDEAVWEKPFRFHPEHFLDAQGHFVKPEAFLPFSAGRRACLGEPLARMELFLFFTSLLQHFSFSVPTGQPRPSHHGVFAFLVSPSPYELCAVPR

[14] = tested on: CYP3A; test: Cytochrome P450 inhibition CYP3A; type: in vitro ADME; conditions: human, single point at 10 μM
[15] = target: T6, Cyp A (Homo sapiens, UniProt P62937)
T6 sequence (P62937 whole entry): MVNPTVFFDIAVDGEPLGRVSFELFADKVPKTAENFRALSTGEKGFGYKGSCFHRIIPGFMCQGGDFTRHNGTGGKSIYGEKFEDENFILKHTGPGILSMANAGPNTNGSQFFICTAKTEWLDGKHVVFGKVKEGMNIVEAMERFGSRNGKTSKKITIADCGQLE
Method: (§2) The cyclophilin binding properties of the compounds were assessed by Surface Plasmon Resonance (SPR) against Cyp A, B and D isoforms (Table 1, representative sensorgrams are shown in Figure 3A).[35]
Surface Plasmon Resonance (SPR)
(§3) SPR measurements were performed on a Biacore T200 instrument (Cytiva). Ni2+ -
(§4) nitrilotriacetic acid (NTA) sensor chips, 1-ethyl-3-(3-diaminopropyl) carbodiimide
(§5) hydrochloride (EDC) and N hydroxy succinimide (NHS) were purchased from Cytiva.
(§6) Immobilization and covalent stabilization of His-Cyps Pure His-cyclophilins on the NTA
(§7) sensor chip was performed essentially as described. [Wear et al., 2017, FEBS OpenBio], using
(§8) 200 nM concentrations of each protein, in Running Buffer (PBS, pH7.4; 0.05 % surfactant P20,
(§9) 2% v/v ethanol; 50 µM EDTA), at 30 µl min-1 with 60 second contact times on the activated
(§10) NTA surfaces. This gave signals of 1,921 RU for His-CypA, 1932 RU for His-CypB and 1,397
(§11) RU for His-CypD. Specific surface protein activity was assayed by passing saturating amounts
(§12) activity were obtained for His-CypA, -B and –D, respectively.
Kinetic titration experiments
(§13) Single cycle kinetic titration binding experiments were performed in triplicate at 25 °C. 3-fold
(§14) injected over the sensor surface, at 100 µl min-1 with a 90 s contact time and a 90 s dissociation
(§15) time. The sensor surface was regenerated between experiments by dissociating any formed
(§16) complex in running buffer for at least 1,200 seconds. The apparent on-rate (k+) and off-rate (k-
(§17) ) constants and the equilibrium dissociation constant (Kd) were calculated from reference

[16] = target: T7, Cyp B (Homo sapiens, UniProt P23284); conditions: from SPR Kd
T7 sequence (P23284 32-216 limits assumed): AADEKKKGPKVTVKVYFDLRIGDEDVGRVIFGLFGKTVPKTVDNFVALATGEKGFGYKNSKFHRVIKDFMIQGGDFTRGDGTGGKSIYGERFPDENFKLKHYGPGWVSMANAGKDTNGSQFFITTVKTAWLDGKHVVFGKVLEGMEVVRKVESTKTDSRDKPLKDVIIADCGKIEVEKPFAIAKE
Method: as §2
Surface Plasmon Resonance (SPR)
as §3, §4, §5, §6, §7, §8, §9, §10, §11, §12
Kinetic titration experiments
as §13, §14, §15, §16, §17

[17] = target: T8, Cyp D (Homo sapiens, UniProt P30405)
T8 sequence (P30405 42-207): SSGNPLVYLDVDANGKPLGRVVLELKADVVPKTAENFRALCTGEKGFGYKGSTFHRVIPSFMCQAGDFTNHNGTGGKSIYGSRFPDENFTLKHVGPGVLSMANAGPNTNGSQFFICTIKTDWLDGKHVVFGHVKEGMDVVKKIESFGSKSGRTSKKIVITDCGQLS
Method: as §2
Surface Plasmon Resonance (SPR)
as §3, §4, §5, §6, §7, §8, §9, §10, §11, §12
Kinetic titration experiments
as §13, §14, §15, §16, §17

[18] = target: T7, Cyp B; test: biochemical; conditions: Kd Cyp B, SPR-derived dissociation constant, 25 °C
Method: as §2
Surface Plasmon Resonance (SPR)
as §3, §4, §5, §6, §7, §8, §9, §10, §11, §12
Kinetic titration experiments
as §13, §14, §15, §16, §17

[19] = Caco-2 permeability; conditions: human, Caco-2
[20] = tested on: Caco-2; test: Caco-2 permeability; conditions: apparent permeability A-B
[21] = tested on: Salmonella typhimurium TA98; test: Ames fluctuation test TA98
Method: (§18) Bacterial cytotoxicity tests were carried out using Reverted Salmonella typhimurium strains
(§19) (TA98, TA100, TA1535, TA1537) that were incubated 96 hours at 37 Celsius. The results for
(§20) cytotoxicity are expressed as percent of control growth (OD650). Compounds with growth of
(§21) less than 60 % of control are flagged and considered cytotoxic.
(§22) Compounds were incubated for 96 hours at 37°C at 4 different concentrations (5 mM, 10 mM,
(§23) the absence and presence of rat liver S9 microsomes.
(§24) to the reversion of the histidine mutation (as judged by the ratio of OD430/OD570 being greater
(§25) than 1.0) are counted and recorded as positive counts. The significance of the positive counts
(§26) between the treatment (in the presence of test compound) and the control (in the absence of test
(§27) compound) are calculated using the one-tailed Fisher's exact test. Three significance levels are
(§28) Very strong positive, if p < 0.001, denoted as "+++"
(§29) Control experiments were carried out with 2-aminoanthracene (10 mM), 9-aminoacridine (10
(§30) mM), quercetin (30 mM) and streptozocitin (2.5 mM).

[22] = tested on: Salmonella typhimurium TA100; test: Ames fluctuation test TA100
Method: as §18, §19, §20, §21, §22, §23, §24, §25, §26, §27, §28, §29, §30

[23] = tested on: Salmonella typhimurium TA1535; test: Ames fluctuation test TA1535
Method: as §18, §19, §20, §21, §22, §23, §24, §25, §26, §27, §28, §29, §30

[24] = tested on: Salmonella typhimurium TA1537; test: Ames fluctuation test TA1537
Method: as §18, §19, §20, §21, §22, §23, §24, §25, §26, §27, §28, §29, §30

[25] = Aqueous kinetic solubility, shake-flask
Method: (§31) Kinetic solubility measurements were carried out using a shake-flask technique. Compounds
(§32) were incubated for 24 hours at room temperature. Aqueous solubility (μM) was determined by
(§33) comparing the peak area of the principal peak in a calibration standard (200 μM) containing
(§34) organic solvent (methanol/water, 60/40, v/v) with the peak area of the corresponding peak in a
(§35) buffer sample. In addition, chromatographic purity (%) was defined as the peak area of the
(§36) principal peak relative to the total integrated peak area in the HPLC chromatogram of the
(§37) calibration standard. A chromatogram of the calibration standard of each test compound, along
(§38) with a UV/VIS spectrum with labeled absorbance maxima, was generated.
(§39) These were measured using a shake-flask technique. Compounds were incubated for 60 min at
(§40) room temperature. The total amount of compound was determined as the peak area of the
(§41) principal peak in a calibration standard (100 μM) containing organic solvent (methanol/water,
(§42) 60/40, v/v). The amount of compound in buffer was determined as the combined, volume
(§43) corrected, and weighted areas of the corresponding peaks in the aqueous phases of three
(§44) organic-aqueous samples of different composition. An automated weighting system was used
(§45) to ensure the preferred use of raw data from those samples with well quantifiable peak signals.
(§46) The amount of compound in organic was calculated by subtraction. Subsequently, Log D was
(§47) calculated as the Log10 of the amount of compound in the organic phase divided by the amount
of compound in the aqueous phase.

[26] = Partition coefficient (Log D), shake-flask; conditions: octanol/water
Method: as §31, §32, §33, §34, §35, §36, §37, §38, §39, §40, §41, §42, §43, §44, §45, §46, §47
of compound in the aqueous phase.

[27] = tested on: Salmonella typhimurium strains (TA98, TA100, TA1535, TA1537); test: Ames tests, all strains (summary in words); conditions: in absence and presence of liver S9 fractions
Method: as §18, §19, §20, §21, §22, §23, §24, §25, §26, §27, §28, §29, §30

[28] = target: T6, Cyp A; test: Isothermal titration calorimetry (ITC), Cyp A; type: binding; parameters: full-length human CypA (M1 – E165); made in house; host or cells: Escherichia coli OverExpress C41 BL21(DE3); conditions: 25 °C
Method: All ITC experiments were carried out at 25°C on a MicroCal Auto iTC200 (GE Healthcare)
solutions were heated to 65°C and/or sonicated prior to the experiment. Each experiment
consisted of an initial injection of 0.4 μL followed by repeated 2 μL injections to achieve
saturation. In all cases the first injection
was omitted from the data processing. All data were analysed using the MicroCal PEAQ-ITC
Analysis software. A fixed stoichiometry to 1 was applied during the non-linear regression of
the raw data for fitting the data.

[29] = tested on: permeabilised human hepatocyte (HepG2) cells; test: Calcium Retention Capacity assay; type: cell-based
Method: Calcium Retention Capacity Assay
The compounds were prepared as a 10 mM stock solution in 100% DMSO. Subsequent dilutions were made in 100% DMSO and then in assay buffer to 10-fold the final concentration.
HepG2 cells were permeabilized with 100 µM digitonin for 10 min in ice cold buffer containing 1mM EGTA. Following two wash steps to remove the digitonin, the cells were plated into 96 well black and clear plates at 106 cell per well in a 180 µL assay buffer containing 0.5 µM Calcium Green 5N. Compounds dilution were prepared in DMSO to 1000 fold the final concentration, diluted 1:100 in assay buffer and added to the assay as 20 µL per well. The assay buffer contained 5 mM glutamate and 2.5 mM malate. The cell plate was immediately run on the FLIPR Tetratm which added 5 µL of 200 µM (5 µM) calcium chloride every 5 minutes whilst reading the plate every 3 seconds. The area under the curve (AUC) of the raw trace was calculated at each concentration. AUC values were plotted against concentration and EC50 values calculated. Experiments were repeated three times and the EC50 value was determined from a curve fitted to the averaged replicates.

[30] = physchem
Method: as §31, §32, §33, §34, §35, §36, §37, §38, §39, §40, §41, §42, §43, §44, §45, §46, §47
of compound in the aqueous phase.

[31] = physchem; remark: listed apart in the source
Method: as §31, §32, §33, §34, §35, §36, §37, §38, §39, §40, §41, §42, §43, §44, §45, §46, §47
of compound in the aqueous phase.

[32] = in vitro; conditions: human, Caco-2
[33] = target: T6, Cyp A; test: SPR kinetic titration, Cyp A
Method: as §2
Surface Plasmon Resonance (SPR)
as §3, §4, §5, §6, §7, §8, §9, §10, §11, §12
Kinetic titration experiments
as §13, §14, §15, §16, §17

[34] = target: T8, Cyp D; test: SPR kinetic titration, Cyp D
Method: as §2
Surface Plasmon Resonance (SPR)
as §3, §4, §5, §6, §7, §8, §9, §10, §11, §12
Kinetic titration experiments
as §13, §14, §15, §16, §17

## CSc1ccccc1[C@H]1CCCN1C(=O)CNC(=O)N(Cc1ccc(N)c(Cl)c1)Cc1nnn(C)n1 [Compound 11, 1-[(4-Amino-3-chloro-phenyl)methyl]-1-[(2-methyltetrazol-5-yl)methyl]-3-[2-oxo-2-[(2R)-2-(2-methylsulfanylphenyl)pyrrolidin-1-yl]ethyl]urea]
[1]
  effect on hepatocyte overall lipid levels and lipid droplet size (in words): significant reduction
[1]; 95% CI [lower limit, upper limit], read-out: EC50 steatosis
  EC50: ~300 nM
[1]; read-out: EC50 MASH assay
  EC50: 258 nM
[2]
  microsomal CLint: 352 µL/min/mg
[2]; read-out: Rat Liver microsomes t1/2
  half-life: 20 min
[3]
  microsomal CLint: 558 µL/min/mg
[3]; read-out: Human Liver microsomes t1/2
  half-life: 12 min
[4]; hepatocytes
  hepatocyte CLint: 13 µL/min/1e6 cells
[4]; hepatocytes, read-out: Rat Hepatocytes t1/2
  half-life: 78 min
[5]; hepatocytes
  hepatocyte CLint: 13 µL/min/1e6 cells
[5]; hepatocytes, read-out: Human Hepatocytes t1/2
  half-life: 74 min
[6]
  recovery at 10 μM: 99%
[6]; read-out: Rat PPB free
  fraction unbound at 10 µM: 0.11
[7]
  recovery: 88%
[7]; read-out: Human PPB free
  fraction unbound at 10 µM: 0.02
[8]
  inhibition at 10 µM: 25%
[9]
  CYP2B6 bupropion % inhibition: 11%
[10]
  CYP2C8 amodiaquine % inhibition: 71%
[11]
  CYP2C9 diclofenac % inhibition: 45%
[12]
  CYP2C19 omeprazole % inhibition: 72%
[13]
  CYP2D6 dextrometor. % inhibition: 18%
[14]; probe midazolam, substrate midazolam, read-out: CYP3A midazolam % inhibition
  inhibition at 10 µM: 73%
[14]; probe testoterone, substrate testoterone, read-out: CYP3A testoterone % inhibition
  inhibition at 10 µM: 59%
[15]
  Kd: 110 ± 50 nM
[16]
  greater affinity for Cyp B compared to 12: ca. 7 fold
  selectivity for Cyp B over Cyp A: 10 fold
  selectivity for Cyp B over Cyp A and Cyp D: 10–20 fold
[17]
  Kd: 180 ± 100 nM
[18]
  Kd: 12 ± 3 nM
[19]
  efflux ratio: 2.8
[20]
  Caco-2 A-B: 5 10^–6 cm/s
[21]; with rat liver S9
  Ames fluctuation test TA98 +S9: neg/neg
[21]; without S9
  Ames fluctuation test TA98 –S9: neg/neg
[22]; with rat liver S9
  Ames fluctuation test TA100 +S9: neg/neg
[22]; without S9
  Ames fluctuation test TA100 –S9: neg/neg
[23]; with rat liver S9
  Ames fluctuation test TA1535 +S9: neg/neg
[23]; without S9
  Ames fluctuation test TA1535 –S9: neg/neg
[24]; with rat liver S9
  Ames fluctuation test TA1537 +S9: neg/neg
[24]; without S9
  Ames fluctuation test TA1537 –S9: neg/neg
[25]; PBS, pH 7.4
  solubility at 24 h: > 200 µM
[25]; simulated gastric fluid
  solubility at 24 h: > 200 µM
[25]; simulated intestinal fluid
  solubility at 24 h: > 200 µM
[26]
  logD at 1 h, 100 µM: 1.53
[27]
  Ames result in all strains tested: negative
[28]; ITC titration to Cyp A
  DG (ITC): -9.7 ± 0.1 kcal/mol
  DH (ITC): -16.4 ± 0.1 kcal/mol
  TDS (ITC): -6.7 kcal/mol
[28]; ITC, pH 6.5, 2% DMSO, read-out: Kd Cyp A from ITC
  Kd: 82 ± 6 nM

## CSc1ccccc1[C@H]1CCCN1C(=O)CNC(=O)N(Cc1ccc2c(c1)[C@H]1C[C@@H](N2)[C@H](O)CO1)Cc1nnn(C)n1 [Compound 3, 1-[[(1S,9R,10S)-10-Hydroxy-12-oxa-8-azatricyclo[7.3.1.0,^27]trideca-2,4,6-trien-4-yl]methyl]-3-[2-[(2R)-2-(2-methylsulfanylphenyl)pyrrolidin-1-yl]-2-oxo-ethyl]-1-[(2-methyltetrazol-5-yl)methyl]urea]
[29]; Homo sapiens, HepG2, read-out: EC50 CRC assay
  EC50: 244 nM
[29]; from EC50 values
  greater efficacy over CsA in the calcium retention assay: 2 fold
[2]
  half-life: 51 min
  microsomal CLint: 137 µL/min/mg
[3]
  half-life: 41 min
  microsomal CLint: 169 µL/min/mg
[4]; cryopreserved hepatocytes
  half-life: > 120 min
  hepatocyte CLint: < 8 µL/min/1e6 cells
[5]; cryopreserved hepatocytes
  half-life: > 120 min
  hepatocyte CLint: < 8 µL/min/1e6 cells
[16]
  selectivity for Cyp B over Cyp A: 3 fold
[30]
  logD: 0.66
[31]
  solubility: 54 µM (≈ 32 µg/mL)
[31]; pH 7.4
  solubility: > 200 µM
[32]
  Papp A→B: 0.03 ×10⁻⁶ cm/s
  efflux ratio: 37
[18]
  Kd: 2 ± 1 nM
[33]
  Kd: 6 ± 2 nM
[34]
  Kd: 8 ± 3 nM
